# Source: patent publication US5955508A, “Method for the enhancement of lymphocyte activity against opportunistic microbial pathogens” (priority 1996, dated 1999)
# Entries after “also recorded” stand apart in the source; their conditions may differ.
# System: CD4+ lymphocytes
# Assay: Con A induced lymphoproliferation of PBMC (CD4+ lymphocytes)
# Format: cell-based, human
# Details: for comparison of 5 ng/ml with 50 ng/ml d-FEN: 5 ng/ml vs 50 ng/ml
# Text: The T lymphocytes analyzed were obtained from 20 HIV+ patients (9 females and 11 males, 25-48 years of age). The patients were diagnosed as being HIV+ within the past 0.5-9 years, and 15 are being treated with antiviral drugs. The subjects' study identification number (indicates the order in which bloods were drawn), CD4+ and CD8+ counts (determined March, 1996, as part of the present study), age, sex, date of diagnosis, and pharmacotherapy are provided in Table 1.
# The patients fell into one of three groups (Groups A, B and C) based on their CD4+ cell counts (the number of T helper cells/μL blood): 8 of the HIV+ patients had normal (or above normal) CD4+ levels (normal range 550-1500/μL); 4 had levels between 200-499/μL; and, 7 had CD4+ counts equal to or below 200/μL. This latter group of patients by definition have AIDS (see Table 41-3 from K. J. Ryan (Ed.), Sherris Medical Microbiology, Third Edition, Appleton & Lange:Norwalk, Conn., 1994, p. 547). These patients, moreover, have had recurrent candidiasis and other opportunistic infections which have become increasingly difficult to manage. All of the patients' CD8+ cell (cytotoxic T lymphocytes) counts were within or above normal range (300-1000/μL). We were unable to obtain enough lymphocytes from one patient (#4) to analyze their antifungal activity.
# Peripheral blood (40 ml) was drawn (Mar. 29-30, 1996) from the patients on a "first come, first serve" basis when they arrived at the Ponce Center for Diagnosis and Treatment (Dr. Hiram Valazquez, Medical Director) for their monthly checkup and who volunteered their blood for experimental analysis. In addition, blood was drawn from 4 healthy HIV- volunteers in order to study their lymphoproliferation response to Con A. The lymphocytes were isolated and processed as detailed below.
# The experimental protocol for this project is illustrated in Table A. Note that the cultures were exposed to two doses (5 and 50 ng/ml) of d-FEN in the mitogenesis assays, whereas only one dose (50 ng/ml) was used in the antifungal and cytokine release assays.
# Cell Proliferation Analysis. Lymphoid cell suspensions were cultured in microtiter plates (Corning Glass Works, Corning, N.Y.) in the presence of 3.0 μg/ml Con-A (Pharmacia, Uppsala, Sweden) for 3 and 4 days at 37° C. d-FEN (5 and 50 ng/ml) was added the second day of culture. The cells were cultured at 2×10^5 /well in RPMI 1640 with 1% fetal bovine serum. The cells then were pulsed for 6.0 h with 1.0 μCi of [^3 H]-thymidine (DuPont-New England Nuclear Research, Boston, Mass.), harvested, and [^3 H]-thymidine incorporation determined with a liquid scintillation counter. The data are reported as a percent increase in the stimulation in dextrofenfluramine values.
# The data were analyzed by a one- or two-way analysis of variance (ANOVA) with repeated measures where appropriate ([…] version 1; Jandel, San Rafael, Calif.). Significant main effects were subjected to post hoc analysis using the Student-Newman Keuls All Pairwise Multiple Comparisons test or the Mann-Whitney U test.
# ^A The stimulatory effect of dFEN is expressed as a percent increase
# in the stimulation index of PBMCs cultured with the two doses of dFEN
# versus that cultured without dFEN. The data represent the greatest
# stimulation that occurred after the lymphocytes had been in culture for 3
# or 4 days. The mitogenic activity of the PBMC (CD4+ lymphocytes) index of
# stimulation was calculated as follows: […]
smiles,measurement,setting,value
CCN[C@@H](C)Cc1cccc(C(F)(F)F)c1 [d-FEN],mitogenesis of human controls and AIDS patients vs non-AIDS HIV+ patients,5 ng/ml d-FEN,greater mitogenesis in the presence of 5 ng/ml d-FEN than the non-AIDS HIV+ patients
same,comparison of 5 ng/ml with 50 ng/ml d-FEN,,lymphocytes obtained from human control and AIDS subjects respond better in vitro to a low (5 ng/ml) than to a high (50 ng/ml) dose; also recorded: greater lymphoproliferation in AIDS derived lymphocytes than 50 ng/ml
same,comparison of 5 ng/ml with 50 ng/ml d-FEN,listed as dextrofenfluramine,more effective than 50 ng/ml
same,mitogenesis of non-AIDS HIV+ patients (Groups A+B) vs AIDS group,50 ng/ml d-FEN,greater mitogenesis than the AIDS group (Group C)
same,"dose effect, two way ANOVA","5 vs 50 ng/ml, p=0.15",did not reach significance
same,activation at 0.005 µg/mL,"Homo sapiens, Lymphocyte, 5 ng/ml d-FEN, Groups A + B (non-AIDS HIV+), Con A, read-out: Increase in Index of Stimulation, Mean ± SEM",17 ± 8%
same,activation at 0.05 µg/mL,"Homo sapiens, Lymphocyte, 50 ng/ml d-FEN, Groups A + B (non-AIDS HIV+), Con A, read-out: Increase in Index of Stimulation, Mean ± SEM",50 ± 8%
same,"proliferation, AIDS patient #15",no detectable CD4+ cells,did not show any proliferation
